From US6544957B2, “Methods and reagents for facilitating transcription” (The Johns Hopkins University, priority 2000, dated 2003)
“And” between values parts separate entries of the source, which are not always exact repeats. Equal values may be shown once.

Assays:
[1] = Richon et al., 1996; cited from earlier work
[2] = tested on: histone deacetylase (HDAC) in PANC-1 cells; experiment: Immunoblotting assay of histone acetylation; type: cell-based
Method: PANC-1 cells were untreated or treated with scriptaid (2 μg/ml) or TSA (0.1 or 0.32 μg/ml). Acetylated histones were detected by anti-human acetyl-lysine antibody immunoblot. Immunoblotting Assay of Histone Acetylation. PANC-1 cells were treated with 2 μg/ml of scriptaid (ChemBridge), 0.1 μg/ml, or 0.32 μg/ml of trichostatin A (Sigma, St. Louis, Mo.) for 18 hours in culture media. Treated and untreated cells were harvested with trypsin-EDTA (Life Technologies, Inc.), washed with phosphate-buffered saline (Life Technologies, Inc.), and resuspended in a protein sample buffer. Protein concentration was determined by BCA protein assay reagents (Pierce, Rockford, Ill.). Fifty micrograms of proteins from each sample was loaded on a 12% denaturing polyacrylamide gel. Proteins were subsequently transferred to a nylon membrane (Imobilon P, Millipore, Burlington, Mass.) using Milliblot-Graphite Electroblotter I (Millipore). The nylon membrane was incubated with rabbit anti-human acetyl-lysine antibody (#06-933, Upstate Biotechnology, Waltham, Mass.) at 1:1000 dilution, followed by goat anti-rabbit antibody coupled to horseradish peroxidase (Pierce) at 1:2000 dilution, developed with SuperSignal substrates (Pierce), and detected by film (BioMax, Kodak, Rochester, N.Y.).

[3] = tested on: PANC-1 and MDA-MB-468 cells; experiment: Survival curve, trypan-blue exclusion; type: cell-based; details: 18-hour incubation; for cytotoxicity (in words): at optimal concentration for transcriptional facilitation
Method: FIGS. 5A to 5B. Effects of compounds on cell survival. […] Data represent averages of two to four experiments and SEM. FIG. 5A, scriptaid. FIG. 5B, TSA.
Survival Curve. Equal numbers of cells were plated in six-well plates in the absence or presence of scriptaid or TSA at different concentrations. After 18 hours of incubation, cell numbers were determined by trypan-blue exclusion. Percent survival of the treated cells was calculated in comparison to the untreated sample, which was considered to represent 100%.

[4] = tested on: p6SBE-luc, p6MBE-luc, pCMVβ, pUB6/V5-lacZ reporters in PANC-1 or MDA-MB-468 cells; experiment: Transient transfection reporter assay (luciferase, β-gal); type: cell-based; details: 18 hours; for facilitation of reporter expression after transient transfection (in words): SV40, CMV and ubiquitin c promoters, PANC-1 or MDA-MB-468
Method: FIGS. 7A-7C. Scriptaid and TSA transcriptional facilitation after transient transfection. PANC-1 or MDA-MB-468 cells were transiently transfected for 4 hours with constructs containing various promoters. Transfected cells were untreated or treated with scriptaid or TSA for 18 hours. Data represent averages of two to five experiments and SEM. FIG. 7A, SV40 promoter and luciferase reporter gene. FIG. 7B, CMV promoter and β-gal reporter gene. FIG. 7C, human ubiquitin c promoter and β-gal reporter gene.
Transfection Assay. Each transient transfection experiment was done in duplicate in six-well plates. LipofectAMINE (Life Technologies, Inc.) was used as directed by the manufacturer. The DNA-LipofectAMINE mixture was removed from cells after 4-5 hours of transfection, and culture media with or without compounds or TGFβ was then added to the cells. Sixteen to eighteen hours from the start of the transfection, cell lysates were prepared with Reporter Lysis Buffer (Promega) for luciferase and β-gal assays. Luciferase was measured using The Luciferase Assay System (Promega) and β-gal assay was performed as previously described (Dai et al., 1998). Studies of the SV40 promoter included all experiments done with p6SBE-luc, p6MBE-luc, and pGL3-control (Promega) plasmids. Studies of the CMV promoter were done using pCMVβ. (Clonetech, Palo Alto, Calif.), and those of human ubiquitin c promoter were done using pUB6/V5-lacZ (Invitrogen).

[5] = tested on: PANC-1 cells containing the stably integrated p6SBE-luc; experiment: TGFβ/Smad4 signal transduction assay with stably integrated p6SBE-luc (FIGS. 6B, 6C); type: cell-based; details: absence or presence of TGFβ 1 ng/ml
Method: FIGS. 6A-6C. Proportional effects of scriptaid and TSA on the TGFβ/Smad4 signal transduction assay. FIG. 6A, p6SBE-luc or p6MBE-luc was cotransfected with pCMV-β into PANC-1 cells. Transfected cells were untreated or treated with TGFβor/and scriptaid for 18 hours. […] Relative luciferase induction was determined after normalization to the TGFβ-non-inducible pCMV-β control, itself subject to scriptaid facilitation (see FIG. 7). Data represent averages of two experiments and SEM. FIG. 6B, total luciferase induction in PANC-1 cells containing the stably integrated p6SBE-luc after treatment with scriptaid or TSA in the absence or presence of TGFβ (1 ng/ml). FIG. 6C, relative luciferase induction in PANC-1 cells containing the stably integrated p6SBE-luc after treatment with scriptaid or TSA in the absence or presence of TGFβ (1 ng/ml ) determined after normalization to the values observed with the HDAC inhibitor alone.
Cell Lines. PANC-1 and MDA-MB-468 cell lines were purchased from ATCC (Manassas, Va.). Stable transfectants were generated by co-transfection of pcDNA3.1 (Invitrogen, Carlsbad, Calif.) and p6SBE-luc into PANC-1 cells with LipofectAMINE (Life Technologies, Inc.). Transfected cells were diluted and selected in multiple 96-well plates in the presence of 0.5 mg/ml of G418 (Life Technologies, Inc.). […]

[6] = tested on: p6SBE-luc reporter construct in PANC-1 cells; experiment: Compound screening, luciferase activity in PANC-1 cells with stably integrated p6SBE-luc; type: cell-based; details: 2 μg/ml compound, 16-18 hours, initial library screen
Method: (§1) Cell Lines. PANC-1 and MDA-MB-468 cell lines were purchased from ATCC (Manassas, Va.). Stable transfectants were generated by co-transfection of pcDNA3.1 (Invitrogen, Carlsbad, Calif.) and p6SBE-luc into PANC-1 cells with LipofectAMINE (Life Technologies, Inc.). Transfected cells were diluted and selected in multiple 96-well plates in the presence of 0.5 mg/ml of G418 (Life Technologies, Inc.). Single clones were expanded and tested for basal luciferase expression and TGFβ inducibility. One clone was chosen on basis of high (6 to 8-fold) induction of luciferase by 0.5 ng/ml TGFβ (R&D Systems, Minneapolis, Minn.).
Compound Screening. Each compound of the library (DIVERSet, ChemBridge, San Diego, Calif.) was dissolved and diluted in DMSO at 1 mg/ml. Cells were plated in 96-well cluster plates (Corning, Cambridge, Mass.) and incubated with each compound, after further dilution in culture media to the final concentration of 2 μg/ml, for 16-18 hours. Luciferase activity was measured upon addition of Steady-Glo substrate (Promega). Up to sixteen 96-well plates could be assembled in a Wallac Trilux photodetector (Wallac, Gaithersburg, Md.) for measurement. All readouts from each experiment were compared to the control wells, and a number reflecting the relative increase in luciferase activity was calculated for each chemical using Excel (Microsoft, Redmond, Wash.) spreadsheets. […]

[7] = tested on: PANC-1 cells having stably integrated p6SBE-luc; experiment: Dose response of transcriptional facilitation in stably transfected cell line (FIG. 3); type: cell-based; details: for transcriptional facilitation (in words): at concentrations corresponding to scriptaid; for optimal concentration for transcriptional facilitation: PANC-1 stably integrated p6SBE-luc, luciferase
Method: FIG. 3. Dose responses of TSA and scriptaid transcriptional facilitation in a stably transfected cell line. Luciferase activity was determined using PANC-1 cells having stably integrated p6SBE-luc at the indicated concentration of compounds. Data represent averages of two to three experiments and SEM.
as §1
Compound Screening. Each compound of the library (DIVERSet, ChemBridge, San Diego, Calif.) was dissolved and diluted in DMSO at 1 mg/ml. Cells were plated in 96-well cluster plates (Corning, Cambridge, Mass.) and incubated with each compound, after further dilution in culture media to the final concentration of 2 μg/ml, for 16-18 hours. Luciferase activity was measured upon addition of Steady-Glo substrate (Promega). Up to sixteen 96-well plates could be assembled in a Wallac Trilux photodetector (Wallac, Gaithersburg, Md.) for measurement. All readouts from each experiment were compared to the control wells, and a number reflecting the relative increase in luciferase activity was calculated for each chemical using Excel (Microsoft, Redmond, Wash.) spreadsheets.
The entire library, consisting of 16,320 compounds, was screened. Eleven compounds were associated with a two to five-fold induction of luciferase activity, and one with a twelve-fold activation (FIG. 1). Further studies on the latter compound (ID#217444, 6-(1,3-Dioxo-1H,3H-benzo[de]isoquinolin-2-yl)-hexanoic acid hydroxyamide, we termed scriptaid) are reported here (FIG. 2). […] The results were validated by repeated determinations in the screening assay and subsequently by a dose-response curve performed on PANC-1 cells containing stably integrated p6SBE-luc (FIG. 3).

SMILES | optimal concentration reported [1] [µM] | cytotoxicity (in words) [3] | facilitation of reporter expression after transient transfection (in words) [4] | effect on TGFβ-stimulated induction of integrated p6SBE-luc (in words) [5] | induction of luciferase activity relative to control wells [6] | also measured
O=C(/C=C/c1cccc(C(=O)NO)c1)NO [CBHA] | 4 |  |  |  |  | 
CC(=O)NCCCCCCNC(C)=O [HMBA] | 5000 |  |  |  |  | 
O=C(CCCCCCC(=O)Nc1ccccc1)NO [SAHA] | 2 |  |  |  |  | 
CC(/C=C/C(=O)NO)=C\[C@@H](C)C(=O)c1ccc(N(C)C)cc1 [TSA, trichostatin A] |  | cytotoxic for two cell lines | less predictable at its optimal concentration | proportionally enhance the induction of an integrated p6SBE-luc construct without interfering with TGFβ-stimulated transcriptional responses |  | inhibition of endogenous histone deacetylation (in words) ([2]; TSA 0.1 μg/ml, compared with scriptaid 2 μg/ml and TSA 0.32 μg/ml): less efficient; survival ([3]; minimal toxic concentration 0.1 μg/ml): 85-90%
O=C(CCCN1C(=O)c2cccc3cccc(c23)C1=O)NO [nullscript, 4-(1,3-Dioxo-1H,3H-benzo[de]isoquinolin-2-yl)-N-hydroxy-butyramide] |  |  |  |  | did not induce | transcriptional facilitation (in words) [7]: inactive; transcriptional facilitation (in words) ([7]; listed as Nullscipt): does not facilitate transcription
O=C(CCCCCN1C(=O)c2cccc3cccc(c23)C1=O)NO [scriptaid, 6-(1,3-Dioxo-1H,3H-benzo[de]isoquinolin-2-yl)-hexanoic acid hydroxyamide] |  | not lethal to one cell line | capable of inducing high expression | proportionally enhance the induction of an integrated p6SBE-luc construct without interfering with TGFβ-stimulated transcriptional responses | twelve-fold | optimal concentration for transcriptional facilitation [7]: 6 to 8 µM; optimal concentration for transcriptional facilitation ([7]; listed as Scriptaid): 2-2.5 μg/ml and 6-8 μM; increase in histone acetylation ([2]; cultured cells, scriptaid 2 μg/ml, 18 hours, anti-acetyl-lysine immunoblot): greater than 100 fold; survival ([3]; at its optimal concentration for transcriptional facilitation, cell line not named): 80%; increase of transcription of all three reporters (p6SBE-luc, p6MBE-luc, pCMVβ) ([4]; transient cotransfection in PANC-1 cells): twelve-fold
